Entries after “also recorded” stand apart in the source; their conditions may differ.
Assays:
Format in all cases: in vivo
[1] = system: Chenopodium album (CHEAL), Abutilon theophrasti (ABUTH), Setaria viridis (SETVI) and Digitaria sanguinalis (DIGSA); assay: Glasshouse weed kill test, nicosulfuron with and without adjuvants; conditions: conclusion from Table 3
Protocol: The efficacy of the aromatic phosphate esters tricresyl phosphate, Phosflex® 362 (2-ethylhexyl diphenyl phosphate) and triphenyl phosphate were tested in a glasshouse against four weed species using the herbicide nicosulfuron. An agrochemical composition was prepared containing 0.5% v/v of the adjuvant Atplus® 411 F in a track sprayer, and was applied at a volume of 200 litres per hectare. The other adjuvants were tested at a arte of 0.2% v/v. Nicosulfuron was applied at a rate of either 30 or 60 grams of pesticide per hectare to weeds which had been grown to the 1.3 or 1.4 leaf stage. The weed species were Chenopodium album (CHEAL), Abutilon theophrasti (ABUTH), Setaria viridis (SETVI) and Digitaria sanguinalis (DIGSA).
Each spray test was replicated three times. The efficacy of the herbicide was assessed visually and expressed as a percentage of the leaf area killed. Samples were assessed at time periods of 14 and 21 days following application. The results shown in Table 3 below are mean averages over the two rates of nicosulfuron, three replicates, four weed species and the two assessment timings, and are compared to the efficacy of nicosulfuron in the absence of adjuvant and nicosulfuron in the presence of the known tank mix adjuvant Atplus® 411F.

Tetranychus urticae = assay: Mortality of two spotted spider mite on French bean plants, abamectin with and without phosphate ester; conditions: for mortality of Tetranychus urticae, phosphate ester composition without abamectin: 0.14% v/v phosphate ester, no abamectin present; for % mortality of Tetranychus urticae: phosphate ester 0.14% v/v, 10 days, larva and adults averaged, lower side of leaves
Protocol: The efficacy of the aromatic phosphate ester Phosflex® 362 (2-ethylhexyl diphenyl phosphate) as an adjuvant in a composition containing abamectin was tested and compared to the efficacy of an abamectin composition without the Phosflex® 362 present, and to the efficacy of an abamectin composition containing triethyl phosphate. The Phosflex® 362 and the triethyl phosphate were present at 0.14% v/v in the abamectin compositions. The surfactants tristyrylphenol ethoxylate phosphate ester, sodium salt and tristyrylphenol ethoxylate were present in all the abamectin compositions tested.
Two week old French bean (Phaseolus vulgaris) plants were infested with a mixed population of two spotted spider mite Tetranychus urticae. One day after infestation the plants were treated with the test compositions, with a track sprayer from the top with a rate of 200 litres per hectare. Plants were incubated in the greenhouse for 10 days and the evaluation was done on mortality against Larva and Adults, just on the lower side (untreated) of the leaves. Each experiment was replicated twice and the results were averaged. The mortality against Larva and Adults was then averaged.

Septoria tritici [2] = assay: Septoria tritici on wheat plants, cyproconazole with and without phosphate ester adjuvants; conditions: conclusion from Table 2
Septoria tritici [3] = conditions: conclusion from Table 1

For “tricresyl phosphate [tricresylphosphate, reference compound]”, the “efficacy as adjuvant for nicosulfuron (in words)” value [1] was “performing particularly well”.

With `CCOP(=O)(OCC)OCC` [triethyl phosphate] the “mortality of Tetranychus urticae, phosphate ester composition without abamectin” value (Tetranychus urticae) was “no mortality was observed”.

In the case of abamectin, the “% mortality of Tetranychus urticae” value (Tetranychus urticae; 0.8 ppm abamectin) is reported as 0%, the “% mortality of Tetranychus urticae” value (Tetranychus urticae; 3 ppm abamectin) is reported as 20% and the “% mortality of Tetranychus urticae” value (Tetranychus urticae; 12.5 ppm abamectin) is reported as 50%.

`CCCCC(CC)COP(=O)(Oc1ccccc1)Oc1ccccc1` (stereo not shown) [Phosflex® 362, 2-ethylhexyldiphenyl phosphate] was tested, and the “mortality of Tetranychus urticae, phosphate ester composition without abamectin” value (Tetranychus urticae) was “no mortality was observed”, the “efficacy as adjuvant for abamectin (in words)” value (Tetranychus urticae; conclusion from Table 7) was “more effective control of Tetranychus urticae than the treatment containing abamectin with no adjuvant present; also recorded: considerably more effective than the alkyl phosphate ester triethyl phosphate” and the “efficacy as adjuvant for cyproconazole (in words)” value (Septoria tritici [2]) was “performed best as an adjuvant out of the compounds tested”. For the same compound, the “efficacy as adjuvant for nicosulfuron (in words)” value [1] was “performing particularly well” and the “efficacy as adjuvant for isopyrazam (in words)” value (Septoria tritici [3]) was “more efficacious as an adjuvant than any of the other compounds tested”.

Source: patent US20170055533A1, “AROMATIC PHOSPHATE ESTERS AS AGROCHEMICAL FORMULATION COMPONENT” (priority 2011, published 2017)
